According to PMC11721293 (JCI Insight, 2025):
Where “and” joins values, the source holds several entries; their conditions need not be identical. Equal values may be shown once. Read-outs that look alike come from different tables or passages of the source.

How the values were obtained:
in vitro [1] = settings: human
[2] = tested on: SARS-CoV-2 spike protein–mediated cell-cell fusion (B.1.1.7); format: cell-based; settings: 48 h
[3] = tested on: SARS-CoV-2 spike protein–mediated cell-cell fusion (BA.1); format: cell-based; settings: 48 h
lysosomal compartment = experiment: LysoTracker staining of VeroTA6 cells
Procedure: (A) VeroTA6 cells were seeded
post treatment, the cells were stained with lysotracker (Thermofisher, L7528) and visualized under
the microscope (left). The fluorescence intensity was captured and quantified for each treatment
B), the significance was calculated using one-way ANOVA with Dunnett’s test with multiple
comparison to the DMSO control, and the P values are depicted as ns for P>0.05, ** for P <0.01,

SARS-CoV-2-nLUC = format: cell-based; settings: Nirmatrelvir 0 uM
in vitro [4] = settings: human; remark: listed apart in the source
SARS-CoV-2 = experiment: Virus-induced cytopathic effect (CPE) in VeroE6; format: cell-based
[5] = Pharmacokinetics after single IP administration; settings: K18-hACE2(Tg) C57Bl/6J, mouse, 40 mg/kg; for Kp / concentration at 24 h / half-life: in vivo, single IP; for Kp: AUC ratio (Tissue/PL); for concentration at 24 h: C24h
[6] = tested on: SARS-CoV-2 strain USA-WA1/2020; format: in vivo, mouse
[7] = tested on: VSV-SARS-CoV-2-S pseudovirus; experiment: microbe, parasite or virus in culture; format: cell-based; settings: for EC50: Pseudovirus
[8] = Fifty MPK twice daily; cited from earlier work
SARS-CoV-2-WA [9] = format: in vivo, mouse; settings: 50 MPK oral gavage twice daily
SARS-CoV-2 RDPs = experiment: microbe, parasite or virus in culture; format: cell-based; settings: for EC50: Huh7.5 ACE-TMPRSS2, Gluc RDPs, 24 h
[10] = tested on: SARS-CoV-2 strain USA-WA1/2020; format: in vivo, mouse; settings: for Viral titer Log10: individual animals, sheet S9B
[11] = tested on: SARS-CoV-2 spike protein–mediated cell-cell fusion (B.1.315); format: cell-based; settings: B.1.315 (printed), 48 h
SARS-CoV-2 replicon = experiment: microbe, parasite or virus in culture; format: cell-based
SARS-CoV-2 viral entry = format: cell-based; settings: for viral entry signal relative to DMSO (sheet 4D): individual replicates, DMSO about 1
SARS-CoV-2-WA [12] = format: in vivo, mouse; settings: 50 MPK oral gavage twice daily; day 2
[13] = tested on: SARS-CoV-2 strain USA-WA1/2020; format: in vivo, mouse; remark: listed apart in the source
[14] = Pharmacokinetics after PO administration; settings: K18-hACE2(Tg) C57Bl/6J, mouse, 25 mg/kg; for Kp / half-life: in vivo, PO; for Kp: AUC ratio (Tissue/PL)
[15] = LNF 40 MPK IP, RDV 25 MPK SC, twice daily
[16] = Severe acute respiratory syndrome coronavirus 2, Huh7.5, 24 h

In the case of `NC(=O)N1CCC(CC(=O)N2CCC([C@H]3c4ncc(Br)cc4CCc4cc(Cl)cc(Br)c43)CC2)CC1` [LNF, lonafarnib], the CC50 (in vitro [1]) is reported as > 30 µM, the relative luciferase signals ([2]; Conc-mM 0.3 (printed)) is reported as 87.1833 and 82.9457 and 81.1177 and 86.5186 and the relative luciferase signals ([2]; Conc-mM 1 (printed)) is reported as 76.2725 and 76.052 and 86.6016 and 79.6419. For the same molecule, the relative luciferase signals ([2]; Conc-mM 3 (printed)) was 59.768 and 61.4378 and 52.374 and 53.9099, the relative luciferase signals ([2]; Conc-mM 10 (printed)) was 35.1915 and 32.9108 and 27.2582 and 33.268 and the relative luciferase signals ([3]; 0.3 (printed)) was 93.9702 and 58.6533 and 53.4918 and 75.0181. For the same molecule, the relative luciferase signals ([3]; 1 (printed)) was 108.194 and 73.2387 and 73.7551 and 89.5366, the “LysoTracker fluorescence intensity” value (lysosomal compartment; VeroTA6, 10 μM, 30 min) was “significantly higher fluorescence intensity” and the Lysotracker (lysosomal compartment; sheet S5A, individual measurements) was 1000.41 and 1078.15 and 1357.74 and 1025.55 and 1236.53 and 1375.69 and 1111.13 and 939.183 and 1788.26 and 2301.51 and 898.567 and 730.339 and 642.99 and 1893.93 and 696.429 and 1937.99 and 1199.36 and 1178.39 and 1146.54 and 1719.14 and 1470.88 and 572.253 and 1006.33. For the same molecule, the Response (SARS-CoV-2-nLUC; Lonafarnib 2.5 uM) was 71.2556 and 72.7427 and 61.8907, the Response (SARS-CoV-2-nLUC; Lonafarnib 5 uM) was 96.7703 and 97.5859 and 97.3674 and the CC50 (in vitro [4]) was > 30 µM. The “effect on virus-induced CPE” value (SARS-CoV-2) was “rescued the infected cells from virus-induced CPE”, the AUC(0-inf) ([5]; brain) was 29 µM·h and the Cmax ([5]; brain) was 1.46 µM. It also gave a Tmax ([5]; brain) of 420 min, an AUC(0-inf) ([5]; heart) of 987 µM·h and a Cmax ([5]; heart) of 94.1 µM. It also gave a Tmax ([5]; heart) of 30 min, a Kp ([5]; Brain) of 0.12 and a Kp ([5]; Heart) of 3.9. For the same molecule, the Kp ([5]; Kidney) was 2.8, the Kp ([5]; Liver) was 12 and the Kp ([5]; Lung) was 3.1. It also gave a concentration at 24 h ([5]; Brain) of 0.36 µM, a concentration at 24 h ([5]; Heart) of 11.4 µM and a concentration at 24 h ([5]; Kidney) of 8.24 µM. It also gave a concentration at 24 h ([5]; Liver) of 40.3 µM, a concentration at 24 h ([5]; Lung) of 8.17 µM and a concentration at 24 h ([5]; Plasma) of 2.76 µM. The half-life ([5]; t1/2, Brain) was 498 min, the half-life ([5]; t1/2, Heart) was 606 min and the half-life ([5]; t1/2, Kidney) was 540 min. It also gave a half-life ([5]; t1/2, Liver) of 642 min, a half-life ([5]; t1/2, Lung) of 522 min and a half-life ([5]; t1/2, Plasma) of 528 min. The AUC(0-inf) ([5]; kidney) was 699 µM·h, the Cmax ([5]; kidney) was 46 µM and the Tmax ([5]; kidney) was 60 min. The AUC(0-inf) ([5]; liver) was 3060 µM·h, the Cmax ([5]; liver) was 224 µM and the Tmax ([5]; liver) was 15 min. The AUC(0-inf) ([5]; lung) was 788 µM·h, the Cmax ([5]; lung) was 93.5 µM and the Tmax ([5]; lung) was 15 min. It also gave an AUC(0-inf) ([5]; plasma) of 253 µM·h, a Cmax ([5]; plasma) of 63.3 µM and a Tmax ([5]; plasma) of 4.8 min. The “Clinical Score” value ([6]; Day 5, individual animals) was 1 (3×) and 0 (7×), the “composite clinical score” value [6, 15] was “much improved disease parameters” and the Max % [7] was 100.0%. For the same molecule, the EC50 ([7]; Calu-3, 24 h, 24 h, read-out: EC50) was 3.17 µM, the EC50 ([7]; Huh-7, 24 h, 24 h, read-out: EC50) was 4.16 µM and the EC50 ([7]; Huh-7, read-out: EC50) was 4.2 µM. The EC50 ([7]; read-out: EC50 values, range over cell lines) was 1.5 to 4.16 µM, the EC50 ([7]; read-out: EC50) was 3.3 µM and the “toxicity in preclinical mouse studies” value [8] was “without any toxicity”. The “lung histopathology score vs vehicle” value (SARS-CoV-2-WA [9]) was “significantly lower histopathology score”, the EC50 (SARS-CoV-2 RDPs) was 10.4 µM and the Inhibition (SARS-CoV-2 RDPs; Log[LNF} mM 1) was 53.2589 and 40.1773 and 43.3748 and 43.6359. For the same molecule, the EC50 (SARS-CoV-2 RDPs; [16]) was 10.5 µM, the “lung viral titer lower than vehicle-treated group” value ([10]; 40 MPK IP twice daily, […]) was ~2 log and the “Viral titer Log10” value ([10]; D2) was 7.238 Log10 and 6.041 Log10 and 6.833 Log10 and 6.059 Log10 and 6.826 Log10 and 4.954 Log10 and 7.083 Log10 and 4.756 Log10. For the same molecule, the “Viral titer Log10” value ([10]; D5) was 6.491 Log10 and 7.228 Log10 and 6.919 Log10 and 6.362 Log10 (2×) and 6.681 Log10 and 7.255 Log10 and 4 Log10 and 7.033 Log10, the “Titer Log10” value ([10]; Day 2, individual animals) was 1.954 (5×) and 2 and 4.538 and 2.301 and 3.13 (2×) and the “Titer Log10” value ([10]; Day 5, individual animals) was 1.954 (3×) and 2.301 and 3.23 and 3.176 and 2.699 and 2.602 and 3.398 and 2.477. For the same molecule, the “lung viral titer” value [10, 15] was “significantly lowered the viral titer in the lung”, the relative luciferase signals ([11]; Conc-mM 0.3 (printed)) was 107.391 and 104.235 and 80.412 and 106.736 and the relative luciferase signals ([11]; Conc-mM 1 (printed)) was 99.0641 and 83.1761 and 82.6205 and 92.2492. The relative luciferase signals ([11]; Conc-mM 3 (printed)) was 65.2189 and 57.2378 and 55.5623 and 61.7046, the relative luciferase signals ([11]; Conc-mM 10 (printed)) was 36.5792 and 34.1792 and 24.08 and 33.4344 and the EC50 (SARS-CoV-2 replicon) was 7.8 µM. For the same molecule, the Inhibition (SARS-CoV-2 replicon) was 99.8867, the Inhibition (SARS-CoV-2 replicon; Log[LNF} mM 1) was 58.6507 and 68.927 and 62.2766 and 74.1393 and the EC50 (SARS-CoV-2 replicon; [16]) was 7.88 µM. The “inhibition of viral entry” value (SARS-CoV-2 viral entry) was “inhibited viral entry”, the “viral entry signal relative to DMSO (sheet 4D)” value (SARS-CoV-2 viral entry; TA6 cells) was 0.282 and 0.3105 and 0.4405 and 0.3405 and 0.2054 and 0.2625 and 0.3109 and 0.2607 and 0.1876 and the “viral entry signal relative to DMSO (sheet 4D)” value (SARS-CoV-2 viral entry; VeroE6 cells) was 0.1605 and 0.1408 and 0.1008 and 0.1281 and 0.213 and 0.1543 and 0.08537 and 0.09496 and 0.1294. For the same molecule, the “lung viral titer” value (SARS-CoV-2-WA [12]) was “significantly lower viral titers in the lung”, the “Histopathology Score” value ([13]; Day 2, individual animals) was 2 (2×) and 1 and 0.5 and 1.5 (3×) and 0 (3×) and the “Histopathology Score” value ([13]; Day 5, individual animals) was 0.5 (3×) and 1 (4×) and 2.5 and 1.5 and 0. The “lung histopathology score vs vehicle” value ([13]; day 5) was “significantly lower histopathology score”, the AUC(0-inf) ([14]; brain) was 3 µM·h and the Cmax ([14]; brain) was 0.21 µM. For the same molecule, the Tmax ([14]; brain) was 7 h, the AUC(0-inf) ([14]; heart) was 97 µM·h and the Cmax ([14]; heart) was 8.6 µM. The Tmax ([14]; heart) was 1 h, the Kp ([14]; Brain) was 0.056 and the Kp ([14]; Heart) was 1.8. The Kp ([14]; Kidney) was 2.1, the Kp ([14]; Liver) was 5.2 and the Kp ([14]; Lung) was 2.4. The half-life ([14]; t1/2, Brain) was 144 min, the half-life ([14]; t1/2, Heart) was 132 min and the half-life ([14]; t1/2, Kidney) was 144 min. It also gave a half-life ([14]; t1/2, Liver) of 102 min, a half-life ([14]; t1/2, Lung) of 126 min and a half-life ([14]; t1/2, Plasma) of 84 min. For the same molecule, the AUC(0-inf) ([14]; kidney) was 113 µM·h, the Cmax ([14]; kidney) was 9.3 µM and the Tmax ([14]; kidney) was 1 h. For the same molecule, the AUC(0-inf) ([14]; liver) was 279 µM·h, the Cmax ([14]; liver) was 20 µM and the Tmax ([14]; liver) was 7 h. It also gave an AUC(0-inf) ([14]; lung) of 129 µM·h, a Cmax ([14]; lung) of 33 µM and a Tmax ([14]; lung) of 0.25 h. It also gave an AUC(0-inf) ([14]; plasma) of 53 µM·h, a Cmax ([14]; plasma) of 3.8 µM and a Tmax ([14]; plasma) of 7 h.
